Several values for one entry are separate records, joined by “and”; a condition that tells them apart may be missing. Identical values can stand only once. Inconclusive results and toxic doses are left out. No stated cut-off is given here; in the data, active means T/C of 150% or more; inactive means T/C below 125%. Square brackets hold non-standard residues; d marks the D form. Peptide text beside a SMILES is read from it. * marks the point of attachment. ξ: configuration not given here. ξY = NC(Cc1ccc(O)cc1)C(=O)O; Cbz = O=C(OCc1ccccc1)*; OBn = c1ccc(CO*)cc1
System: L1210 leukemia ip in BDF1 mice, survival T/C
Assay: NCI In Vivo Anticancer Drug Screen. Data for tumor model L1210 Leukemia (intraperitoneal) in B6D2F1 (BDF1) mice
Conditions: endpoint: mean survival time, higher = longer survival
Outline: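 In this screen, tumor-bearing mice given compound are compared to those given vehicle, and their survival values are reported as a treated-to-control quotient.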

[1] = dose: 100.0 mg/kg/injection, schedule: Q01DX001 (ip), vehicle: carboxymethylcellulose (CMC)
[2] = dose: 200.0 mg/kg/injection, schedule: Q01DX001 (ip), vehicle: carboxymethylcellulose (CMC)
[3] = dose: 400.0 mg/kg/injection, schedule: Q01DX001 (ip), vehicle: carboxymethylcellulose (CMC)
[4] = dose: 50.0 mg/kg/injection, schedule: Q01DX009 (ip), vehicle: Klucel (hydroxypropylcellulose) (HPC)
[5] = dose: 50.0 mg/kg/injection, schedule: Q04DX003 (ip), vehicle: Klucel (hydroxypropylcellulose) (HPC)
[6] = dose: 100.0 mg/kg/injection, schedule: Q01DX009 (ip), vehicle: saline with Tween-80
[7] = dose: 100.0 mg/kg/injection, schedule: Q04DX003 (ip), vehicle: Klucel (hydroxypropylcellulose) (HPC)
[8] = dose: 200.0 mg/kg/injection, schedule: Q01DX009 (ip), vehicle: saline with Tween-80
[9] = dose: 200.0 mg/kg/injection, schedule: Q04DX003 (ip), vehicle: Klucel (hydroxypropylcellulose) (HPC)
[10] = dose: 400.0 mg/kg/injection, schedule: Q04DX003 (ip), vehicle: Klucel (hydroxypropylcellulose) (HPC)

Measured: T/C

Cc1nnc(S(=O)(=O)c2ccc(N=Nc3c(N)nc(N)nc3N)cc2)s1
inactive: [1] 92 % of control | [2] 97 % of control | [3] 94 % of control

O=c1[nH]cnc2c1ncn2C1OC(CF)C(O)C1O (stereo unspecified)
inactive: dose: 100.0 mg/kg/injection, schedule: Q01DX009 (ip), vehicle: saline 101 % of control | dose: 100.0 mg/kg/injection, schedule: Q04DX003 (ip), vehicle: other 112 % of control | dose: 200.0 mg/kg/injection, schedule: Q01DX009 (ip), vehicle: saline 101 % of control | dose: 200.0 mg/kg/injection, schedule: Q04DX003 (ip), vehicle: other 103 % of control | dose: 400.0 mg/kg/injection, schedule: Q01DX009 (ip), vehicle: saline 101 % of control | dose: 400.0 mg/kg/injection, schedule: Q04DX003 (ip), vehicle: other 98 % of control

C=CCc1ccc(OCCOCCN(CC=C(C)C)CC=C(C)C)c(OC)c1
inactive: dose: 12.5 mg/kg/injection, schedule: Q01DX009 (ip), vehicle: Klucel (hydroxypropylcellulose) (HPC) 100 % of control | dose: 12.5 mg/kg/injection, schedule: Q04DX003 (ip), vehicle: Klucel (hydroxypropylcellulose) (HPC) 96 % of control | dose: 25.0 mg/kg/injection, schedule: Q01DX009 (ip), vehicle: Klucel (hydroxypropylcellulose) (HPC) 97 % of control | dose: 25.0 mg/kg/injection, schedule: Q04DX003 (ip), vehicle: Klucel (hydroxypropylcellulose) (HPC) 98 % of control | [4] 95 % of control | [5] 88 % of control

CN(C)c1ccc(CN2CCCN(Cc3ccc(N(C)C)cc3)C2c2ccccc2O)cc1
inactive: [6] 100 % of control | [7] 97 % of control | [8] 107 % of control | [9] 100 % of control | dose: 400.0 mg/kg/injection, schedule: Q01DX009 (ip), vehicle: saline with Tween-80 106 % of control | [10] 97 % of control

COC(=O)C1CCC2(C)C=CC(=O)C(C)C2C1 (stereo unspecified)
inactive: dose: 75.0 mg/kg/injection, schedule: Q04DX003 (ip), vehicle: saline 100 % of control | dose: 150.0 mg/kg/injection, schedule: Q04DX003 (ip), vehicle: saline 100 % of control | dose: 300.0 mg/kg/injection, schedule: Q04DX003 (ip), vehicle: saline 96 % of control

CCOC(=O)C(CC(C)C)NC(=O)C(N)Cc1ccc(N(CCCl)CCCl)cc1 (stereo unspecified)
inactive: dose: 2.5 mg/kg/injection, schedule: Q01DX009 (ip), vehicle: water 116 % of control

CC1(C)C(=O)C2C=CCC21 (stereo unspecified)
inactive: dose: 50.0 mg/kg/injection, schedule: Q01DX009 (ip), vehicle: saline with Tween-80 91 % of control | [6] 98 % of control | [8] 95 % of control

CCOC(=O)c1ccc(NS(=O)(=O)c2ccc(Cl)cc2[N+](=O)[O-])cc1
inactive: [1] 99 % of control | dose: 100.0 mg/kg/injection, schedule: Q01DX009 (ip), vehicle: carboxymethylcellulose (CMC) 112 % of control and 88 % of control | dose: 100.0 mg/kg/injection, schedule: Q04DX002 (ip), vehicle: carboxymethylcellulose (CMC) 96 % of control and 90 % of control | dose: 100.0 mg/kg/injection, schedule: Q04DX003 (ip), vehicle: carboxymethylcellulose (CMC) 105 % of control | [2] 101 % of control | dose: 200.0 mg/kg/injection, schedule: Q01DX009 (ip), vehicle: carboxymethylcellulose (CMC) 88 % of control and 89 % of control | dose: 200.0 mg/kg/injection, schedule: Q04DX002 (ip), vehicle: carboxymethylcellulose (CMC) 93 % of control and 91 % of control | dose: 200.0 mg/kg/injection, schedule: Q04DX003 (ip), vehicle: carboxymethylcellulose (CMC) 102 % of control | [3] 103 % of control | dose: 400.0 mg/kg/injection, schedule: Q01DX009 (ip), vehicle: carboxymethylcellulose (CMC) 88 % of control and 91 % of control | dose: 400.0 mg/kg/injection, schedule: Q04DX002 (ip), vehicle: carboxymethylcellulose (CMC) 93 % of control | dose: 400.0 mg/kg/injection, schedule: Q04DX003 (ip), vehicle: carboxymethylcellulose (CMC) 93 % of control

CN(C)c1ccc(/C=N\N=C/c2ccc(N(C)C)cc2)cc1
inactive: [4] 97 % of control | dose: 100.0 mg/kg/injection, schedule: Q01DX009 (ip), vehicle: Klucel (hydroxypropylcellulose) (HPC) 93 % of control | dose: 200.0 mg/kg/injection, schedule: Q01DX009 (ip), vehicle: Klucel (hydroxypropylcellulose) (HPC) 103 % of control

CC(=O)Nc1ccc(S(=O)(=O)N2CC2)cc1
inactive: dose: 50.0 mg/kg/injection, schedule: Q01DX005 (ip), vehicle: saline 102 % of control | [5] 91 % of control | dose: 100.0 mg/kg/injection, schedule: Q01DX005 (ip), vehicle: saline 96 % of control | [7] 102 % of control | dose: 200.0 mg/kg/injection, schedule: Q01DX005 (ip), vehicle: saline 102 % of control | [9] 95 % of control

CCOC(=O)n1c(=O)[nH]c2ccccc21
inactive: dose: 87.5 mg/kg/injection, schedule: Q04DX003 (ip), vehicle: carboxymethylcellulose (CMC) 97 % of control | dose: 175.0 mg/kg/injection, schedule: Q04DX003 (ip), vehicle: carboxymethylcellulose (CMC) 91 % of control | dose: 350.0 mg/kg/injection, schedule: Q04DX003 (ip), vehicle: carboxymethylcellulose (CMC) 101 % of control

ICC1OCOC2C(CI)OCOC12 (stereo unspecified)
inactive: dose: 100.0 mg/kg/injection, schedule: Q01DX001 (ip), vehicle: other 103 % of control | dose: 200.0 mg/kg/injection, schedule: Q01DX001 (ip), vehicle: other 93 % of control | dose: 400.0 mg/kg/injection, schedule: Q01DX001 (ip), vehicle: other 103 % of control

O=C(O)CCC(NC(=O)c1ccccc1C(=O)O)C(=O)O (stereo unspecified)
inactive: [1] 94 % of control | [2] 94 % of control | [3] 90 % of control

O=C(CNC(=O)OCc1ccccc1)NC(Cc1ccc(O)cc1)C(=O)OCc1ccccc1 (stereo not drawn) (Cbz-Gly-[ξY]-OBn)
inactive: [7] 96 % of control | [9] 97 % of control | [10] 91 % of control
